The subject of data set [1] is cAMP-specific phosphodiesterase (PDE IV). Briefly: Inhibition of the PDE IV enzyme derived from a dog trachea. Format: biochemical. The following applies: test compound 10^−6 M; PDE IV from dog tracheal smooth muscle; substrate cAMP 1 μM. How it is done: cAMP-specific phosphodiesterase (PDE IV) was purified from a dog tracheal smooth muscle according to the method of Torphy et al. [Molecular Pharmacol., 37, 206-214 (1990)]. The PDE activity was measured by the following two steps according to the method of Kincaid and Manganiello et al. [Method in Enzymology (J. D. Corbin and R. A. Jonson, Eds.), 199, 457-470 (1988)]. Using [^3]cAMP (at a final concentration of 1 μM) as a substrate, the reaction was carried out in a standard mixture containing N,N-bis(2-hydroxyethyl)-2-aminoethanesulfonic acid (50 mM, pH=7.2), MgCl2 (1 mM), and soybean trypsin inhibitor (0.1 mg/ml). The reaction was initiated by adding the enzyme, followed by incubation at 30° C. for 10 to 30 minutes. After stopping the reaction with hydrochloric acid, the generated […] was completely converted to adenosine by 5′-nucleotidase.
The resultant was subjected to chromatography on DEAE-Sephadex A-25, and radio activity of the eluted [^3H] adenosine was counted using a scintillation counter. Each of the test drugs was dissolved in DMSO (final concentration 1.7%) and then added to the mixture.

SMILES strings stand for the structures. Where a name gives a salt, the structure may show the parent alone.

As a reminder, the melting point is the temperature of the solid-liquid transition.

`COc1ccc(C(=O)Nc2c(Cl)cncc2Cl)c2c1OCC2`: the melting point fell in the range of 196 to 197 °C.

For the compound `COc1ccc(C(=O)Cc2c(Cl)cncc2Cl)c2cc(C#N)oc12`, the melting point is 197 to 199 °C.

Compound `CCOC(=O)Cc1coc2c(OC)ccc(C(=O)Cc3c(Cl)cncc3Cl)c12` yielded a melting point of 105 to 115 °C.

`CCOC(=O)Cc1coc2c(OC)ccc(C(=O)Cc3ccncc3)c12` showed a melting point of 111 to 117 °C.

Regarding `COc1ccc(C(=O)Nc2c(Cl)cncc2Cl)c2c1CC1(CCCC1)O2`, the melting point is 156 to 158 °C.

`COc1ccc(C(=O)Nc2ccncc2)c2c1CC1(CCCC1)O2.CS(=O)(=O)O`: the melting point is 164 °C (dec.).

In the case of `COc1ccc(C(=O)Cc2ccncc2)c2c1CC1(CCCC1)O2`, the melting point was 101 to 103 °C.

With `COC(=O)c1ccc(-c2ccc(OC)c3c2CC(C)(C)O3)cc1`, the melting point was in the range of 116 to 122 °C.

Consider `COc1ccc(-c2ccc(C(=O)O)cc2)c2c1OC(C)(C)C2`, for which the melting point lay within 249 to 252 °C.

In turn, `COC(=O)c1cccc(-c2ccc(OC)c3c2CC(C)(C)O3)c1` yielded a melting point of 89 to 91 °C.

On to `COc1ccc(-c2cccc(C(=O)O)c2)c2c1OC(C)(C)C2`, for which the melting point is 220 to 225 °C.

The compound `COc1ccc(C(=O)Nc2c(F)cccc2F)c2c(CC(=O)OCc3ccccc3)coc12` displayed a melting point of 223 to 224 °C.

For the compound `COc1ccc(C(=O)Nc2c(C)cccc2C)c2c(CC(=O)OCc3ccccc3)coc12`, the melting point lay in the range of 202 to 204 °C.

With `COc1ccc(C(=O)Cc2c(Cl)cncc2Cl)c2c(CC(=O)O)coc12`, the melting point is 192 to 194 °C.

Turning to `COc1ccc(C(=O)Cc2c(Cl)cncc2Cl)c2c(CC(=O)OCc3ccccc3)coc12`, the melting point was 132 to 133 °C.

As to `CCOC(=O)Cc1coc2c(OC)ccc(C(=O)Cc3c(Cl)cccc3Cl)c12`, the melting point lay in the range of 153 to 154 °C.

As to `COc1ccc(C(=O)Cc2c(Cl)cccc2Cl)c2cc(C(=O)N(C)c3cccc(F)c3)oc12`, the melting point lay in the range of 198 to 199 °C.

As for `COc1ccc(C(=O)Cc2c(Cl)cncc2Cl)c2cc(C(=O)c3ccccc3)oc12`, the melting point lay in the range of 213 to 215 °C.

Consider `COc1ccc(C(=O)Nc2cccc(C(=O)O)c2)c2cc(C(=O)c3ccccc3)oc12`, for which the melting point lay within 262 to 263 °C.

Compound `COc1ccc(C(=O)Cc2c(Cl)cncc2Cl)c2c1OCC2CC(=O)OCc1ccccc1` (centres unmarked) showed a melting point of 120 to 122 °C.

The compound `COc1ccc(C(=O)Cc2c(Cl)cncc2Cl)c2c1OCO2` came in with a melting point of 170 to 171 °C.

For the compound `COc1ccc(C(=O)Cc2c(Cl)cncc2Cl)c2c1OC(C)(C)O2`, the melting point is 133 to 134 °C.

In turn, `COc1ccc(C(=O)Cc2c(Cl)cncc2Cl)c2c1OC(c1ccccc1)(c1ccccc1)O2` came in with a melting point of 156 to 157 °C.

In the case of `COc1ccc(C(=O)Cc2c(Cl)cncc2Cl)c2c1OCCO2`, the melting point lay within 158 to 160 °C.

For `COc1ccc(C(=O)Cc2ccncc2)c2c1OCCO2.Cl`, the melting point lay within 226 to 228 °C.

Compound `COc1ccc(C(=O)Cc2c(Cl)cccc2Cl)c2c1OCCO2` yielded a melting point of 154 to 155 °C.

As for `COc1ccc(C(=O)Nc2c(Cl)cncc2Cl)c2c1OCCO2`, the melting point lay within 143 to 145 °C.

In the case of `COc1ccc(C(=O)Nc2c(Cl)cccc2Cl)c2c1OCCO2`, the melting point lay within 176 to 177 °C.

As to `CCOC(=O)c1cccc(NC(=O)c2ccc(OC)c3c2OCCO3)c1`, the melting point was 174 to 175 °C.

The compound `COc1ccc(C(=O)Nc2cccc(C(=O)O)c2)c2c1OCCO2` returned a melting point of 283 to 284 °C.

`CCOC(=O)c1ccc(-c2ccc(OC)c3c2OCCO3)cc1` gave a melting point of 141 to 141.5 °C.

In the case of `COc1ccc(-c2ccc(C(=O)O)cc2)c2c1OCCO2`, the melting point lay within 281 to 284 °C.

The compound `COc1ccc(C(=O)Cc2ccncc2)c2c1OCCCO2.Cl` returned a melting point of 205 to 208 °C.

`COc1ccc(CCc2ccncc2)c2c1OCCCO2.Cl` yielded a melting point of 185 to 187 °C.

`COc1ccc(C(=O)Nc2c(Cl)cncc2Cl)c2c1OCCCO2`: the melting point was in the range of 149 to 150 °C.

The compound `COc1ccc(C(=O)Nc2c(Cl)cncc2Cl)c2c1OCCCCO2` returned a melting point of 115 to 117 °C.

The compound `COc1ccc(C(=O)Nc2ccncc2)c2c1OC(C)(C)O2` came in with a melting point of 180 to 181 °C.

Compound `CCN1CCN(C(=O)c2cc3c(C(=O)Cc4c(Cl)cncc4Cl)ccc(OC)c3o2)CC1.O=C(O)/C=C/C(=O)O` displayed a melting point of 196 to 197 °C.

`COc1ccc(C(=O)Nc2c(Cl)cncc2Cl)c2cc(Cc3ccccc3)oc12` had a melting point of 141 to 142 °C.

As for `COc1ccc(/C=C/c2c(Cl)cncc2Cl)c2c1OC(C)(C)C2`, the melting point lay in the range of 114 to 118 °C.

The compound `COc1ccc(C(C)=Cc2ccncc2)c2c1OC(C)(C)C2` gave a melting point of 85 to 87 °C.

Compound `COc1ccc(/C=C/c2c(Cl)cncc2Cl)c2cc(-c3ccncc3)oc12` displayed a melting point of 204 to 206 °C.

In turn, `COc1ccc(C=C(C#N)C#N)c2c1OC(C)(C)C2` gave a melting point of 198 to 200 °C.

`COc1ccc(/C=C/C(=O)Nc2ccncc2)c2c1OC1(CCCC1)C2` came in with a melting point of 124 to 128 °C.

`COc1ccc(C(=O)Cc2c(Cl)cncc2Cl)c2c1OC(C)(C)C2` returned a melting point of 127 to 131 °C.

On to `COc1ccc(C(=O)Cc2ccncc2)c2c1OC(C)(C)C2`, for which the melting point was 107 to 111 °C.

Regarding `COc1ccc(C(C)=Cc2ccncc2)c2c1OC1(CCCC1)C2` (as salt: salt) [Compound 75, 7-Methoxy-4-[1-methyl-2-(4-pyridyl)ethenyl]-spiro[2,3-dihydrobenzofuran-2,1′-cyclopentane]], the melting point fell in the range of 85 to 87 °C.

As to `COc1ccc(CNc2ccncc2)c2c1OCC2C` (racemic), the melting point lay in the range of 138 to 145 °C.

Take `COc1ccc(/C=C/c2c(Cl)cncc2Cl)c2c1OCC2C` (racemic): the melting point is 117 to 118 °C.

For the compound `CCOC(=O)CC1COc2c(OC)ccc(C(=O)Nc3ccncc3)c21` (racemic) [Compound 6, (±)-3-Ethoxycarbonylmethyl-7-methoxy-4-pyridylaminocarbonyl-2,3-dihydrobenzofuran], in data set [1], the “Enzyme Inhibitory Activity (%, 10^−6 M)” value worked out at 66%.

With `COc1ccc(C(=O)Nc2c(Cl)cncc2Cl)c2c1OCC2CC(=O)N1CCN(C)CC1.Cl` (racemic) [Compound 17, (±)-4-[(3,5-Dichloro-4-pyridyl)aminocarbonyl]-7-methoxy-3-[(4-methylpiperazin-1-yl)carbonylmethyl]-2,3-dihydro-benzofuran.hydrochloride], the “Enzyme Inhibitory Activity (%, 10^−6 M)” value in data set [1] amounted to 63%.

Take `COc1ccc(C(=O)Nc2c(Cl)cncc2Cl)c2c1OCC2CC(=O)Nc1cccnc1` (racemic) [Compound 19, (±)-4-[(3,5-Dichloro-4-pyridyl)aminocarbonyl]-7-methoxy-3-[(3-pyridyl)aminocarbonyl]methyl-2,3-dihydro-benzofuran]: the “Enzyme Inhibitory Activity (%, 10^−6 M)” value in data set [1] was determined as 87%.

In the case of `COc1ccc(C(=O)Nc2c(Cl)cncc2Cl)c2c1OCC2CC(=O)Nc1ncccn1` (racemic) [Compound 20, (±)-4-[(3,5-Dichloro-4-pyridyl)aminocarbonyl]-7-methoxy-3-[(2-pyrimidyl)aminocarbonyl]methyl-2,3-dihydro-benzofuran], the “Enzyme Inhibitory Activity (%, 10^−6 M)” value in data set [1] came to 80%.

For the compound `COc1ccc(C(=O)Nc2c(Cl)cncc2Cl)c2c1OCC2CC(=O)N1CCc2ccccc2C1` (racemic) [Compound 22, (±)-4-[(3,5-Dichloro-4-pyridyl)aminocarbonyl]-7-methoxy-3-[(1,2,3,4-tetrahydroisoquinolinyl)carbonyl]-methyl-2,3-dihydrobenzofuran], the “Enzyme Inhibitory Activity (%, 10^−6 M)” value in data set [1] is recorded as 85%.

Regarding `COc1ccc(C(=O)Nc2c(Cl)cncc2Cl)c2c1OCC2CC(=O)NCc1ccccn1` (racemic) [Compound 24, (±)-4-[(3,5-Dichloro-4-pyridyl)aminocarbonyl]-7-methoxy-3-[(2-pyridylmethyl)aminocarbonyl]methyl-2,3-dihydrobenzofuran], the “Enzyme Inhibitory Activity (%, 10^−6 M)” value in data set [1] was determined as 80%.

In the case of `COc1ccc(C(=O)Nc2c(Cl)cncc2Cl)c2c1OCC2CC(=O)NCc1ccncc1` (racemic) [Compound 26, (±)-4-[(3,5-Dichloro-4-pyridyl)aminocarbonyl]-7-methoxy-3-[(4-pyridylmethyl)aminocarbonyl]methyl-2,3-dihydrobenzofuran], in data set [1], the “Enzyme Inhibitory Activity (%, 10^−6 M)” value is recorded as 79%.

In the case of `COC1(OC)CC=C(C(Cc2ccncc2)c2ccccc2)C2=C1OC(C)(C)C2` (racemic) [Compound 47, (±) 7-Methoxy-2,2-dimethyl-7-methoxy-4-[1-phenyl-2-(4-pyridyl)ethyl]-2,3-dihydrobenzofuran], the melting point lay within 78 to 81 °C.

`COc1ccc(C(Sc2ccncc2)c2ccccc2)c2c1OC(C)(C)C2` (racemic) [Compound 49, (±)-7-Methoxy-2,2-dimethyl-4-[1-phenyl-1-(4-pyridylthio)methyl]-2,3-dihydrobenzofuran]: the “Enzyme Inhibitory Activity (%, 10^−6 M)” value in data set [1] came to 40%.

For the compound `COc1ccc(C(Cc2c(Cl)cncc2Cl)OC)c2c1OC(C)(C)C2` (racemic) [Compound 62, (±)-4-[2-(3,5-Dichloro-4-pyridyl)-1-methoxyethyl]-7-methoxy-2,2-dimethyl-2,3-dihydrobenzofuran], in data set [1], the “Enzyme Inhibitory Activity (%, 10^−6 M)” value was 63%.

The values are drawn from patent US6716987B1, “Derivatives of benzofuran or benzodioxazole compounds” (Kyowa Hakko Kogyo Co., Ltd., priority 1995, dated 2004).
